{
  "source": "patent US20230165242A1",
  "about": "“RODENTICIDAL BAIT AND METHOD OF CONTROLLING TARGET HARMFUL RODENTS” (priority 2020, published 2023)",
  "key": {"[1]": {"details": "in vivo; cited from earlier work"}, "[2]": {"tested_on": "warfarin-sensitive male OFA-Sprague-Dawley rats", "assay": "Prothrombin level, Quick's time (bromadiolone / cholecalciferol gavage)", "format": "in vivo, rat", "source_text": "Warfarin-sensitive male OFA-Sprague-Dawley rats (Charles River, L′Arbresles, France) are fed by gavage for 3 consecutive days with a gavage solution containing bromadiolone (LIPHATECH, France) and cholecalciferol (Sigma-Aldrich, France) in a solvent consisting of 95% (v/v) of oil and 5% (v/v) of DMSO. During this period of gavage, the rats are fed with a conventional solid feed and water in unlimited amounts. The concentrations of bromadiolone and cholecalciferol in the gavage solution are 0.1 g/kg (100 ppm) and 7.5 g/kg (7500 ppm) respectively. Each rat receives daily a volume of gavage solution calculated to correspond to 1 mL of gavage solution per kilogram of body weight. The OFA-Sprague-Dawley rats in two control groups are fed by gavage in the same conditions with gavage solutions containing bromadiolone (alone) at a concentration of 100 ppm or cholecalciferol (alone) at a concentration of 7500 ppm, respectively. 24 hours after the last gavage, a volume of blood is taken from each rat by intracardiac puncture and placed in a specimen tube containing sodium citrate. The animals are euthanized after puncture and the plasma is prepared by centrifugation. Quick's time (or clotting time) is evaluated on the plasma supplemented with sodium citrate, then decalcified and recalcified in the presence of calcium thromboplastin. Quick's time is evaluated by means of an optical device for clotting analysis (Option 2plus, Bio Mèrieux®). The results are presented [FIG. 2]. The average Quick's time measured on the plasma from the rats fed by gavage with bromadiolone (bar “B”) is 12.4 seconds (±1.8), the average Quick's time measured on the plasma from the rats fed by gavage with cholecalciferol (bar “C”) is 12.4 seconds (±0.9) and the average Quick's time measured on the plasma from the rats fed by gavage with the composition comprising bromadiolone and cholecalciferol (bar “D”) is 14.1 seconds (±2.7). The differences in values of Quick's time measured between the three groups of rats are not significant. The rats in the group of rats that received the combination of bromadiolone and cholecalciferol coagulate in the same way as the rats in the group of rats that received the gavage solution containing bromadiolone on the one hand and the rats in the group of rats that received the gavage solution containing cholecalciferol on the other hand. Quick's time for rats treated with a control solution formed from oil (95%, v/v) and DMSO (5%, v/v) is (bar “A”) 12.8 seconds (±2.3). Neither the gavage solution containing bromadiolone in combination with cholecalciferol, nor the gavage solution containing bromadiolone alone, nor the gavage solution containing cholecalciferol induces an increase of Quick's time relative to the control. […]"}, "[3]": {"tested_on": "warfarin-sensitive male OFA-Sprague-Dawley rats", "assay": "Synergy of bromadiolone and cholecalciferol, gavage, survival", "format": "in vivo, rat", "details": "gavage 5 consecutive days; bromadiolone 0.1 mg/kg alone, cholecalciferol 7.5 mg/kg alone, or both combined; after 20 days of observation", "source_text": "A group of 10 warfarin-sensitive male OFA-Sprague-Dawley rats (Charles River, L′Arbresles, France), aged 10 weeks and with a body weight between 160 and 180 g, are fed by gavage for 5 consecutive days with a gavage solution containing bromadiolone (LIPHATECH, France) and cholecalciferol (Sigma-Aldrich, France) in a solvent consisting of 95% (v/v) of oil and 5% (v/v) of DMSO. During this period of gavage, the rats are fed with a conventional solid feed and water in unlimited amounts. The rats are fed by gavage with a volume of this gavage solution so as to administer an amount of bromadiolone corresponding to 0.1 mg of bromadiolone per kilogram of body weight of the rat fed by gavage and an amount of cholecalciferol corresponding to 7.5 mg of cholecalciferol per kilogram of body weight of the rat fed by gavage. The rats in two control groups, each consisting of 10 male OFA-Sprague-Dawley rats, are fed by gavage in the same conditions with gavage solutions containing, respectively, bromadiolone alone so as to administer an amount of bromadiolone corresponding to 0.1 mg of bromadiolone per kilogram of body weight of the rat fed by gavage and cholecalciferol alone so as to administer an amount of cholecalciferol corresponding to 7.5 mg of cholecalciferol per kilogram of body weight of the rat fed by gavage. […]"}, "[4]": {"tested_on": "warfarin-sensitive male OFA-Sprague-Dawley rats", "assay": "Dose/rodenticidal response effect of difethialone on warfarin-sensitive rats", "format": "in vivo, rat", "details": "gavage, 21 days", "procedure": "A gavage solution containing difethialone (LIPHATECH, France) in a solvent consisting of 95% (v/v) of oil and 5% (v/v) of DMSO is administered once a day for 3 consecutive days to warfarin-sensitive male OFA-Sprague-Dawley rats (Charles River, L′Arbresles, France), aged 10 weeks and with a body weight between 160 and 180 g. During this period of gavage, the rats are fed with a conventional solid feed and water in unlimited amounts. The doses of difethialone administered to the OFA-Sprague-Dawley rats, given in Table 6 hereunder, are expressed in micrograms of difethialone administered per kilogram of body weight of the gavage-fed rodent.\nThe percentage of rats surviving gavage is recorded daily for 21 days counting from the first day of gavage."}, "[5]": {"tested_on": "warfarin-sensitive male OFA-Sprague-Dawley rats", "assay": "Prothrombin level, Quick's time (difethialone gavage)", "format": "in vivo, rat", "details": "difethialone solution 100 ppm, 1 mL/kg", "procedure": "Nine warfarin-sensitive male OFA-Sprague-Dawley rats (Charles River, L′Arbresles, France) are fed by gavage for 3 consecutive days with difethialone (LIPHATECH, France) in solution in a mixture consisting of 90% (v/v) of oil and 10% (v/v) of DMSO. The concentration of difethialone in the gavage solution is 0.1 g/kg (100 ppm). Each rat receives daily a volume of gavage solution calculated to correspond to 1 mL of gavage solution per kilogram of its body weight […]. 24 hours after the last gavage, a volume of blood is taken from each rat by intracardiac puncture and placed in a specimen tube containing sodium citrate. The animals are euthanized after puncture and the plasma is prepared by centrifugation. […] Quick's time (or clotting time) is evaluated on the plasma supplemented with sodium citrate, then decalcified and recalcified in the presence of calcium thromboplastin. Quick's time is evaluated by means of an optical device for clotting analysis (Option 2plus, Bio Mèrieux®). The average Quick's time measured on the plasma from the rats fed by gavage with difethialone is 23.4 seconds (±6.1). For comparison, the average Quick's time of control rats fed by gavage with the solution without difethialone is 17.5 seconds (±2.1). The difference in values of Quick's time of the rats fed by gavage with the difethialone solution and with the control solution without difethialone is not significant."}, "[6]": {"tested_on": "male Sprague-Dawley rats that have undergone introgression, homozygotic carriers of the Y139F mutation in the Vkorc1 gene", "assay": "Dose/rodenticidal response effect of difethialone on warfarin-resistant male Y139F rats", "format": "in vivo, rat", "details": "for Mortality, %: gavage, 21 days", "procedure": "A gavage solution containing difethialone (LIPHATECH, France) in a solvent consisting of 95% (v/v) of oil and 5% (v/v) of DMSO is administered once a day for 3 consecutive days to male Sprague-Dawley rats that have undergone introgression, which are homozygotic carriers of the Y139F mutation in the Vkorc1 gene. During this period of gavage, the rats are fed with a conventional solid feed and water in unlimited amounts. The doses of difethialone administered to the Sprague-Dawley rats that have undergone introgression, given in Table 9 hereunder, are expressed in micrograms of difethialone administered per kilogram of body weight of the gavage-fed rodent.\nThe percentage of rats surviving gavage is noted daily for 21 days counting from the first day of gavage. 100% of the Sprague-Dawley rats that had undergone introgression survive gavage for 3 days with 0.125 mg of difethialone per kilogram of body weight per day."}, "[7]": {"tested_on": "Female Sprague-Dawley rats that are homozygotic carriers of the Y139F mutation in the Vkorc1 gene", "assay": "Synergy of difethialone and cholecalciferol on warfarin-resistant female Sprague-Dawley Y139F rats", "format": "in vivo, rat", "details": "gavage once a day for 3 days; difethialone 0.125 mg/kg alone, cholecalciferol 7.5 mg/kg alone, or both combined; 22 days of observation", "source_text": "Female Sprague-Dawley rats that are homozygotic carriers of the Y139F mutation in the Vkorc1 gene, aged 10 weeks, are acclimatized for 5 days in the presence of a conventional solid feed and water in unlimited amounts. These female Sprague-Dawley Y139F rats are fed by gavage once a day for 3 consecutive days with a gavage solution containing difethialone (LIPHATECH, France) and cholecalciferol (Sigma-Aldrich, France) in a solvent consisting of 95% (v/v) of oil and 5% (v/v) of DMSO. During this period of gavage, the rats are fed with a conventional solid feed and water in unlimited amounts. The amounts of difethialone and cholecalciferol administered are 0.125 mg per kilogram of body weight of the rat fed by gavage and 7.5 mg per kilogram of body weight of the rat fed by gavage, respectively. The rats in two control groups, each consisting of OFA-Sprague-Dawley […] rats, are fed by gavage in the same conditions with gavage solutions containing, respectively, difethialone alone so as to administer an amount of difethialone corresponding to 0.125 mg per kilogram of body weight of the rat fed by gavage and cholecalciferol alone so as to administer an amount of cholecalciferol corresponding to 7.5 mg per kilogram of body weight of the rat fed by gavage. The percentage of rats surviving gavage is noted daily for 21 days counting from the first day of gavage. […]"}, "[8]": {"tested_on": "warfarin-sensitive male OFA-Sprague-Dawley rats", "assay": "Synergy of difethialone and cholecalciferol on warfarin-sensitive rats, gavage, survival", "format": "in vivo, rat", "details": "gavage once a day for 3 days; difethialone 125 μg/kg alone or combined with cholecalciferol 7.5 mg/kg; 20 days of observation", "source_text": "A group of warfarin-sensitive male OFA-Sprague-Dawley rats (Charles River, L′Arbresles, France), aged 10 weeks and with a body weight between 160 and 180 g, are fed by gavage once a day for 3 consecutive days with a gavage solution containing difethialone (LIPHATECH, France) and cholecalciferol (Sigma-Aldrich, France) in a solvent consisting of 95% (v/v) of oil and 5% (v/v) of DMSO. During this period of gavage, the rats are fed with a conventional solid feed and water in unlimited amounts. The amounts of difethialone and cholecalciferol administered are 125 μg per kilogram of body weight of the rat fed by gavage and 7.5 mg per kilogram of body weight of the rat fed by gavage, respectively. The rats in two control groups, each consisting of OFA-Sprague-Dawley rats, are fed by gavage in the same conditions with gavage solutions containing difethialone alone (125 μg/kg) or cholecalciferol alone (7.5 mg/kg), respectively. The percentage of rats surviving gavage is recorded daily, for 20 days counting from the first day of gavage. The results presented [FIG. 3] show the variation of the percentage of rodents surviving (in %) as a function of time (t, in days) following the first day of gavage. The rats fed by gavage with the difethialone solution (♦) have 100% survival after 20 days of observation. […]"}, "[9]": {"details": "dose 100 μg/kg once a day for 3 days"}, "[10]": {"details": "dose 500 μg/kg once a day for 3 days"}},
  "data": [
    {"smiles": "C=C1/C(=C\\C=C2/CCC[C@]3(C)[C@@H]([C@H](C)CCCC(C)(C)O)CC[C@@H]23)C[C@@H](O)C[C@@H]1O", "note": "[Calcitriol, 1,25-dihydroxycholecalciferol]", "values": [
      {"measurement": "half-life in the body", "setting": "[1]", "result": "~5", "unit": "h"}
    ]},
    {"smiles": "O=c1oc2ccccc2c(O)c1C(CC(O)c1ccc(-c2ccc(Br)cc2)cc1)c1ccccc1", "note": "(stereo not shown) [bromadiolone, 3-[3-(4′-bromo[1,1′-biphenyl]-4-yl)-3-hydroxy-1-phenylpropyl]-4-hydroxy-2H-1-benzopyran-2-one]", "values": [
      {"measurement": "anticoagulant effect (increase of Quick's time relative to the control)", "setting": "[2]; 3 daily gavages, bromadiolone 100 ppm and/or cholecalciferol 7500 ppm solution, 1 mL/kg", "result": "not anticoagulants"},
      {"measurement": "average Quick's time (clotting time)", "setting": "[2]; plasma 24 hours after last of 3 daily gavages, 1 mL/kg of solution with bromadiolone 100 ppm and/or cholecalciferol 7500 ppm", "result": 12.4, "unit": "s"},
      {"measurement": "percentage of rats surviving", "setting": "[3]", "result": 100, "unit": "%"}
    ]},
    {"smiles": "O=c1sc2ccccc2c(O)c1C1CC(c2ccc(-c3ccc(Br)cc3)cc2)Cc2ccccc21", "note": "(stereo not shown) [difethialone, 3-(4′bromobiphenyl-4-yl)-1-(4-hydroxythiocoumarin-3-yl)-1,2,3,4-tetrahydronaphthalene]", "values": [
      {"measurement": "Mortality, %", "setting": "[4]; dose 50 μg/kg once a day for 3 days", "result": 0, "unit": "%"},
      {"measurement": "Mortality, %", "setting": "[4]; [9]", "result": 0, "unit": "%"},
      {"measurement": "Mortality, %", "setting": "[4]; dose 150 μg/kg once a day for 3 days", "result": 40, "unit": "%"},
      {"measurement": "Mortality, %", "setting": "[4]; dose 200 μg/kg once a day for 3 days", "result": 100, "unit": "%"},
      {"measurement": "Mortality, %", "setting": "[4]; [10]", "result": 100, "unit": "%"},
      {"measurement": "anticoagulant effect (increase in Quick's time relative to the control)", "setting": "[5]; 3 daily gavages", "result": "not anticoagulating"},
      {"measurement": "haemorrhagic sign", "setting": "[5]; 3 daily gavages", "result": "No haemorrhagic sign"},
      {"measurement": "average Quick's time (clotting time)", "setting": "[5]; plasma 24 hours after last of 3 daily gavages", "result": 23.4, "unit": "s"},
      {"measurement": "Mortality, %", "setting": "[6]; [9]", "result": 0, "unit": "%"},
      {"measurement": "Mortality, %", "setting": "[6]; dose 125 μg/kg once a day for 3 days", "result": 0, "unit": "%"},
      {"measurement": "Mortality, %", "setting": "[6]; dose 250 μg/kg once a day for 3 days", "result": 100, "unit": "%"},
      {"measurement": "Mortality, %", "setting": "[6]; [10]", "result": 100, "unit": "%"},
      {"measurement": "rats surviving gavage", "setting": "[6]; gavage for 3 days with 0.125 mg of difethialone per kilogram of body weight per day", "result": 100, "unit": "%"},
      {"measurement": "percentage of rats surviving", "setting": "[7]", "result": 100, "unit": "%"},
      {"measurement": "percentage of rats surviving", "setting": "[8]", "result": 100, "unit": "%"}
    ]}
  ]
}
